Test results as given in publication PMC6148290, “Endogenous metabolites of vitamin E limit inflammation by targeting 5-lipoxygenase” (Nature Communications, 2018).

Assays:
[1] = target: T1, 12-LO (Homo sapiens, UniProt P18054); test: 12-LO product formation in A23187/AA-activated PMNL; assay type: cell-based; settings: at 3 µM; mean ± s.e.m., n = 3; n.i. no inhibition
T1 construct: 12-HETE (12-LO product from platelets in PMNL preparations); endogenous in cells; host or cells: platelets contaminating human PMNL preparations
T1 sequence (P18054 1-663): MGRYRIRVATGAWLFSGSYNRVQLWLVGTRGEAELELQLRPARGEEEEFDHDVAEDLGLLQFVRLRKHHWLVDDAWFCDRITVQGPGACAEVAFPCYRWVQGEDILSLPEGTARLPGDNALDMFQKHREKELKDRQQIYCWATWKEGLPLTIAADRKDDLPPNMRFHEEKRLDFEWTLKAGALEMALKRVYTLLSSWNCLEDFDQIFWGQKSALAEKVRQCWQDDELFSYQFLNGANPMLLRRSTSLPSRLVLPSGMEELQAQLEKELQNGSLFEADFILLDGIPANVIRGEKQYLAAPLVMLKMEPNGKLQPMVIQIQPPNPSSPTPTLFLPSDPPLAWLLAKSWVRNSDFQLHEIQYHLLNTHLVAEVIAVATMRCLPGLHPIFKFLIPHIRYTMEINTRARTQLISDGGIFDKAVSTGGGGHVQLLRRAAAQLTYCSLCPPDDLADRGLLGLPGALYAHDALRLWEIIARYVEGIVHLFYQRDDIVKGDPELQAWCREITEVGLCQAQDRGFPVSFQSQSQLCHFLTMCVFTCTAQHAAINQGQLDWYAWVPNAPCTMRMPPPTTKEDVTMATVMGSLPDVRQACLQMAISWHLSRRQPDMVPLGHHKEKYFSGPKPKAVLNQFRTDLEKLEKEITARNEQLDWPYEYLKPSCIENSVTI
Experimental: (§1) Cells were washed and medium was exchanged. Freshly isolated PMNL (1 × 10^7) and stably transfected HEK-293 (1 × 10^6) cells were suspended in PBS pH 7.4 containing 1 mg/ml glucose and 1 mM CaCl2. […] A23187- and A23187/AA-treated PMNL and A23187/AA-treated HEK-293 (5-LO_wt), HEK-293 (5-LO_3W) and HEK-293 (5-LO_Arg101Asp) cells produced 135 ± 21, 636 ± 112, 300 ± 59, 133 ± 29, 55 ± 9 ng 5-LO products, respectively. PMNL synthesized 29 ± 6 ng 12-HETE and 97 ± 23 ng 15-HETE when challenged with A23187/AA. 5-LO products from monocytes were analyzed by UPLC-MS/MS.

[2] = tested on: 15-LO; test: 15-LO product formation in A23187/AA-activated PMNL; assay type: cell-based, human; settings: at 3 µM; mean ± s.e.m., n = 3; n.i. no inhibition
Experimental: as §1

[3] = tested on: peripheral blood mononuclear cells; test: Cell viability of PBMC (MTT assay); assay type: cell-based, human; settings: at 1 and 10 µM (one entry for both); 24 h; n.i. no inhibition
Experimental: The formazan product was solubilized with SDS (10% in 20 mM HCl), and absorbance was measured at 570 nm using a Multiskan Spectrum microplate reader (Thermo Fisher Scientific).

[4] = tested on: zymosan-induced murine peritonitis; test: Zymosan-induced peritonitis in mice; assay type: in vivo, mouse; settings: 10 mg/kg i.p.; 30 min post zymosan; ELISA
Experimental: Mice were killed by inhalation of CO2 after another 30 min for determination of LTC4 levels and vascular permeability and after 4 h for the analysis of LTB4 levels, lipidomic profiles and immune cell infiltration. Cell infiltration and lipid mediator profiles during resolution were studied after 18 h. Peritoneal exudates were collected and cells counted after vital trypan blue staining. LTC4, LTB4, and PGE2 were analyzed in the exudate by enzyme immunoassays (Enzo Life Sciences, Lörrach, Germany) according to manufacturer's instructions. To assess vascular permeability, Evans blue dye (40 mg/kg in saline, 0.3 ml; Sigma-Aldrich) was injected into the tail vain immediately before the induction of peritonitis. Exudates were centrifuged (3000 × g, 5 min) and the absorbance of the supernatants was measured at 610 nm using a Beckman Coulter DU730 spectrophotometer. To investigate the effect of α-T (1a) on the accumulation of α-T-13'-COOH (4a) in infiltrated leukocytes after peritonitis has been established, vehicle or α-[…].) were given 1 h before and/or 4 h post zymosan injection, and mice were killed after another 1.5 h. Leukocytes were obtained from peritoneal exudates by centrifugation (1200 × g, 10 min, 4 °C).

[5] = cited from earlier work; for plasma levels in humans: ref Mangialasche et al., 2012
[6] = target: T2, 5-LO (Homo sapiens, UniProt P09917); test: Activity of purified human recombinant 5-LO (cell-free); assay type: biochemical; design: made in house; host or cells: E. coli Bl21 (DE3); settings: cell-free; mean ± s.e.m., n = 3; read-out: IC50, human recombinant 5-LO
T2 sequence (P09917 1-674): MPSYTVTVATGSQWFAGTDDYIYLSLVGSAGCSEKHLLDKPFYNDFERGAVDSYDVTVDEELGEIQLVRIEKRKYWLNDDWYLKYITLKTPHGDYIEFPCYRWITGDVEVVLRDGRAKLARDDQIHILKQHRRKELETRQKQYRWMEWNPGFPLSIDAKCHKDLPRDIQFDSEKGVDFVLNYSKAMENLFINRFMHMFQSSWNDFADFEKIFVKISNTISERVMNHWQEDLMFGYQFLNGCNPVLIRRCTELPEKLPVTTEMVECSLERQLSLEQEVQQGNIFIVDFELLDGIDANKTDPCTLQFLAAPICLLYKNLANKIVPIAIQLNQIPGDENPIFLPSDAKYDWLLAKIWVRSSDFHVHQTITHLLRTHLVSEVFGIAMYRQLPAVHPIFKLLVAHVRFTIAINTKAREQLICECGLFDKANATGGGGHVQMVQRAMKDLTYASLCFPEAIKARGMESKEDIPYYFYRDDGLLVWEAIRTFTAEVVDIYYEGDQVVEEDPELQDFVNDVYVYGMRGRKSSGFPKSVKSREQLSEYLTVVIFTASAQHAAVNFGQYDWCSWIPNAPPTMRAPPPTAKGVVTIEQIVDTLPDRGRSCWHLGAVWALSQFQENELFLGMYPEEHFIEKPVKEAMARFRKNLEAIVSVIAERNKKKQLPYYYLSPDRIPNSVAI
Experimental: E. coli Bl21 (DE3) cells were transformed with pT3–5LO plasmid to express human recombinant 5-LO, which was purified by affinity chromatography on an ATP-agarose column. In brief, E. coli was lysed in 50 mM triethanolamine/HCl pH 8.0 plus EDTA (5 mM), soybean trypsin inhibitor (60 µg/ml), phenylmethanesulphonyl fluoride (1 mM), dithiothreitol (1 mM), and lysozyme (1 mg/ml). After sonication (3 × 15 s), the homogenate was centrifuged at 10,000 × g for 15 min and the supernatant again at 40,000 × g for 70 min at 4 °C. The supernatant was applied to an ATP-agarose column (Sigma-Aldrich), and the column was washed with (i) PBS pH 7.4, 1 mM EDTA, (ii) 50 mM phosphate buffer pH 7.4, 0.5 M NaCl, 1 mM EDTA, and (iii) 50 mM phosphate buffer pH 7.4, 1 mM EDTA. 5-LO was eluted with 50 mM phosphate buffer pH 7.4, 1 mM EDTA, 20 mM ATP.
Purified 5-LO (0.5 µg) in PBS pH 7.4 containing EDTA (1 mM) and ATP (1 mM) was pre-incubated with LCMs for 10 min at 4 °C, pre-warmed for 30 s at 37 °C and 5-LO product formation was started by addition of AA (Sigma-Aldrich; 20 µM if not indicated otherwise) plus CaCl2 (2 mM). […] AA was added after incubation for 5 min on ice.

[7] = target: T2, 5-LO; test: 5-LO product formation in activated PMNL; assay type: cell-based; design: Freshly isolated PMNL (1 × 10^7); endogenous in cells; host or cells: human PMNL freshly isolated from leukocyte concentrates; settings: cell-based; mean ± s.e.m., n = 3; read-out: IC50, activated PMNL (5-LO)
Excerpt: Human PMNL, monocytes, PBMC, and platelets were freshly isolated from leukocyte concentrates. The protocols for experiments with human blood and blood cells were approved by the ethical commission of the Friedrich-Schiller-University Jena. […] PMNL were recovered from the pellet after hypotonic lysis of erythrocytes. Platelets were obtained from the supernatant and washed with PBS pH 5.9/0.9% NaCl (1:1). […]

[8] = DPPH radical scavenging; settings: 50 µM; control
Experimental: Compounds were incubated with 2,2-diphenyl-1-picrylhydrazyl (DPPH, Sigma-Aldrich; […]) in ethanol for 30 min. Absorbance was measured at 520 nm using a Multiskan Spectrum Microplate Reader (Thermo Fisher Scientific)[35]. Ascorbic acid (Sigma-Aldrich; 50 µM), used as control, scavenged DPPH radicals by 82.4 ± 1.9%.

[9] = target: T3, human recombinant LTC4 synthase (LTC4S) (Homo sapiens, UniProt Q16873); test: LTC4 synthase activity; assay type: biochemical; settings: 10 µM; reference inhibitor
T3 construct: expressed in transfected cells; host or cells: HEK-293 cells stably expressing LTC4S (microsomal membranes)
T3 sequence (Q16873 1-150): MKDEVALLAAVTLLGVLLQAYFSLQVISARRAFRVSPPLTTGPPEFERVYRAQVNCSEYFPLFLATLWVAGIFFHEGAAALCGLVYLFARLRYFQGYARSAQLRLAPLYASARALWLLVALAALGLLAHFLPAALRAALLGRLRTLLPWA
Experimental: To investigate the effect of LCMs on LTC4S activity, we used microsomal membranes from HEK-293 cells stably expressing LTC4S[70]. […] The conversion of LTA4 to LTC4 methyl esters was initiated by addition of LTA4 methyl ester (Cayman Chemicals; 1 µM). After 10 min at 4 °C, the reaction was terminated by ice-cold methanol (one volume), and LTC-d5 methyl ester (5 ng; Cayman Chemicals) was added as internal standard. LTC4 was extracted and analyzed by UPLC-MS/MS as described for lipid mediators. Vehicle (DMSO)-treated microsomal membranes produced 7.1 ± 0.5 nmol LTC4.

Row | SMILES | 12-LO product formation/PMNL, residual activity [1] | 15-LO product formation/PMNL, residual activity [2] | Cell viability/peripheral blood mononuclear cells, residual viability [3] | LTC4 levels in the exudate [4] | plasma levels in humans [5] [µM] | hepatic tissue concentrations ([5]; ref Nagita et al., 1997) [nmol/g] | human plasma level ([5]; ref Nagita et al., 1997) [µM] | IC50 [6] [nM] | IC50 [7] [nM] | DPPH radicals scavenged [8] [%] | suppression of LTC4 formation [9] [%]
1 | Cc1c(C)c2c(c(C)c1O)CC[C@@](C)(CCC[C@H](C)CCC[C@H](C)CCCC(C)C)O2 [1a, α-tocopherol] | n.i. | n.i. | n.i. | significantly less effective | 25 to 35 | 70 to 530 | 14 to 27 | > 1000 | 808000 ± 159000 | – | –
2 | Cc1c(O)cc2c(c1C)O[C@](C)(CCC[C@H](C)CCC[C@H](C)CCCC(C)C)CC2 [1c] | n.i. | n.i. | n.i. | – | – | – | – | 910 ± 150 | 502000 ± 199000 | – | –
3 | Cc1cc(O)cc2c1O[C@](C)(CCC[C@H](C)CCC[C@H](C)CCCC(C)C)CC2 [1d] | n.i. | 86.6 ± 15.8 % of control | n.i. | – | 0.01 | – | – | 310 ± 100 | 85000 ± 5000 | – | –
4 | CC(C)=CCC/C(C)=C/CC/C(C)=C/CC[C@]1(C)CCc2cc(O)cc(C)c2O1 [1h] | 87.6 ± 8.5 % of control | n.i. | n.i. | – | – | – | – | 170 ± 100 | 60000 ± 15000 | – | –
5 | Cc1c(C)c2c(c(C)c1O)CC[C@@](C)(CCCC(C)CCCC(C)CCCC(C)CO)O2 (stereo partly drawn) [2a] | 84.7 ± 4.7 % of control | 156.7 ± 26.2 % of control | n.i. | – | – | – | – | 350 ± 40 | 190 ± 50 | – | –
6 | Cc1cc(O)cc2c1O[C@](C)(CCC[C@H](C)CCC[C@H](C)CCCC(C)CO)CC2 (stereo partly drawn) [2d] | 84.8 ± 7.8 % of control | 142.8 ± 13.9 % of control | n.i. | – | – | – | – | 120 ± 40 | 540 ± 20 | – | –
7 | C/C(=C\CC/C(C)=C/CC/C(C)=C/CC[C@]1(C)CCc2cc(O)cc(C)c2O1)CO [2h] | n.i. | n.i. | n.i. | – | – | – | – | 150 ± 50 | 1260 ± 330 | – | –
8 | O=C1O[C@H]([C@@H](O)CO)C(O)=C1O [Ascorbic acid, reference compound] | – | – | – | – | – | – | – | – | – | 82.4 ± 1.9 | –
9 | CC(C)c1ccc2c(c1)c(SC(C)(C)C)c(CC(C)(C)C(=O)O)n2Cc1ccc(Cl)cc1 [MK-886, reference compound] | – | – | – | – | – | – | – | – | – | – | 95.6 ± 0.9
